The subject of one data set is KB. The data set can be described thus: Cytotoxicity against human KB cells. The class given is functional, cell-based.
Data set [1] is described as follows: Cytotoxicity against human HOG.R5 cells. The class given is cell-based.
The subject of another data set is HUVEC. The data set can be described thus: Cytotoxicity against HUVEC. The data set is classed as cell-based. Conditions: Homo sapiens.
A further data set relates to LNCaP. The data set can be described thus: Cytotoxicity against human LNCAP cells. The data set is classed as functional, cell-based.
A further data set has as its system Lu1. The data set can be described thus: Cytotoxicity against human Lu1 cells. The data set is classed as functional, cell-based.
In the next data set the test system is Col2. The data set can be described thus: Cytotoxicity against human Col2 cells. The class given is functional, cell-based.
For data set [2], the system named is Human immunodeficiency virus 1. The data set can be described thus: Antiviral activity against HIV1 3B infected in human HOG.R5 cells after 4 days. The data set is classed as functional, organism-based. Particulars: Human immunodeficiency virus 1, 3B, HOG.R5, 96 h.

Bounds are passed on as bounds.

The IC50 is the midpoint of a concentration-inhibition curve. A high value points to weaker potency. What is called CC50 is the concentration that lowers cell viability or growth by half. The low end stands for greater toxicity to the cells, the high end for lower toxicity to the cells. In the case of `COc1cc(C#C/C=C/COc2ccc(O)cc2)ccc1O`, the IC50 in the data set on KB is 40.5 µM; with HUVEC it was more than 20 mg/L; with LNCaP, more than 20 mg/L; in the data set with Lu1 it was 66.5 µM; in the data set on Col2, more than 20 mg/L. The same molecule came in with a CC50 in data set [1] of less than 17 µM.

On to `C=CC(/C=C\c1ccc(O)cc1)c1ccc(OC)c(O)c1` (stereo not given), for which the IC50 in the data set on KB was 31.9 µM; with HUVEC it was 58.1 µM; with LNCaP, 41.1 µM; in the data set with Lu1, 25.5 µM; in the data set with Col2 it was 41.4 µM. In data set [1], this molecule yielded a CC50 of 12 µM.

As to `C=CC(CC(=O)c1ccc(O)cc1)c1ccc(O)cc1` (stereo not given), the IC50 in the data set on KB was more than 20 mg/L; with HUVEC, more than 20 mg/L; in the data set with LNCaP, more than 20 mg/L; with Lu1, more than 20 mg/L; in data set [2] it was 74.6 µM; in the data set on Col2, more than 20 mg/L. The molecule further came in with a CC50 in data set [1] of 76.8 µM.

Regarding `C=CC(/C=C\c1ccc(O)cc1)c1ccc(O)c(OC)c1` (stereo not given), the IC50 in the data set on KB amounted to 31.9 µM; with HUVEC, 23.7 µM; in the data set on LNCaP, 23.4 µM; with Lu1 it was 15.9 µM; in the data set on Col2 it was 22.3 µM. In data set [1], this molecule showed a CC50 of 24.1 µM.

Consider `C[C@H]1CC[C@@]2(OC1)O[C@H]1C[C@H]3[C@@H]4CC[C@@H]5C[C@@H](O[C@@H]6O[C@H](CO[C@@H]7OC[C@H](O)[C@H](O)[C@H]7O)[C@@H](O[C@@H]7OC[C@H](O)[C@H](O)[C@H]7O)[C@H](O)[C@H]6O[C@@H]6O[C@H](CO)[C@@H](O)[C@H](O)[C@H]6O)CC[C@]5(C)[C@H]4CC[C@]3(C)[C@H]1[C@@H]2C` [ASPARACOSIDE], for which the IC50 in the data set on KB turned out to be 4.8 µM; with HUVEC, 4.1 µM; with LNCaP, 10.1 µM; in the data set on Lu1, 4.2 µM; in the data set with Col2 it was 5.4 µM. In data set [1], this molecule came in with a CC50 of less than 10 µM.

In the case of `C[C@@H]1CC[C@@]2(OC1)O[C@H]1C[C@H]3[C@@H]4CCC5=CC(=O)CC[C@]5(C)[C@H]4C[C@@H](O)[C@]3(C)[C@@]1(O)[C@@H]2C` [ASPARACOSIN A], the IC50 was 24.1 µM in the data set with KB; more than 20 mg/L in the data set with HUVEC; more than 20 mg/L with LNCaP; more than 20 mg/L in the data set on Lu1; more than 20 mg/L with Col2.

Regarding `COC1(OC)CC[C@@]2(C)[C@H](CC[C@@H]3[C@@H]2CC(=O)[C@@]2(C)[C@H]3C[C@@H]3O[C@]4(CC[C@@H](C)CO4)[C@@H](C)[C@@]32O)C1` [ASPARACOSIN B], the IC50 in the data set on KB, with HUVEC, in the data set on LNCaP, with Lu1 and in the data set on Col2 was more than 20 mg/L throughout.

As for `Oc1ccc(C#C/C=C/COc2ccc(O)cc2)cc1` [ASPARENYDIOL], the IC50 in the data set on KB is 8.5 µM; in the data set on HUVEC, more than 20 mg/L; in the data set with LNCaP, more than 20 mg/L; in the data set on Lu1 it was 70.1 µM; in the data set on Col2, more than 20 mg/L. Moreover, the CC50 in data set [1] was less than 18 µM.

In the case of `COc1cc(/C=C/CO)ccc1O` [CONIFERYL ALCOHOL], the IC50 in the data set with KB, in the data set with HUVEC, with LNCaP, in the data set with Lu1 and in the data set on Col2 was more than 20 mg/L in each case.

Turning to `Cc1c2ccncc2c(C)c2c1[nH]c1ccccc12` [ELLIPTECINE], the IC50 in the data set with KB amounted to 0.16 µM; with HUVEC it was 0.37 µM; in the data set with LNCaP it was 3.25 µM; in the data set on Lu1, 0.08 µM; in the data set on Col2, 1.22 µM. Further, the CC50 in data set [1] came out at 0.08 µM.

On to `C=C[C@H](/C=C\c1ccc(O)cc1)c1ccc(O)cc1` [NYASOL], for which the IC50 is more than 20 mg/L in the data set on KB; more than 20 mg/L in the data set on HUVEC; more than 20 mg/L with LNCaP; more than 20 mg/L in the data set with Lu1; 46.4 µM in data set [2]; more than 20 mg/L in the data set with Col2. The same molecule yielded a CC50 in data set [1] of 58.1 µM.

Source of the values: ChEMBL document CHEMBL1146477, “Bioactive constituents from Asparagus cochinchinensis” (J Nat Prod, 2004).
